Several values for one entry are separate records, joined by “and”; a condition that tells them apart may be missing. Equal values may be shown once.
Tests used:
thyroxine antibody [1] = assay: Effect of pH on immunoreactivity in the assay of thyroxine; format: binding; details: pH from 5 to about 7
Text: The effect of pH on the assay should likewise be considered. […] While the naphthyl phosphate substrate described herein may be suitably used at a pH of 5, the preferred umbelliferone-type substrate needs a pH in the range of about 6 to about 8 for useful operation in the […] mode. Sensitivities in pH can perhaps be overcome by changing the charge characteristics of the labeled analyte, as by incorporating more basic groups on the analyte molecule. Also, the use of a more avid antisera for thyroxine should be helpful. It may also be helpful to modify the linking chemistry (e.g.--the site, type of linking groups).

thyroxine antibody [2] = assay: Reference displacement curve, thyroxine vs thyroxine-S-peptide, fluorogenic substrate (Example XVII); format: binding; details: for Rate: antibody
Protocol: This Example illustrates the generation of a reference displacement curve using thyroxine-S peptide as the labeled analyte and 5'-0-acetyl uridine-3'-(4 methylumbelliferone-7-yl phosphate) as a fluorogenic substrate. The following reagents were prepared:
a. Thyroxine-S-Peptide labeled analyte: Material prepared as described in Examples I-IV, was diluted by a factor of 1:2000 in 0.1M sodium acetate buffer of pH 5.0.
b. Antibody: Antiserum was diluted by a factor of 1:2000 using 0.1M sodium acetate buffer of pH 5.0;
c. S-Protein: Purified material was brought to 2×10^-5 M using 0.1M sodium acetate buffer of pH 5.0;
d. Substrate: Seventeen milligrams of 5'-0-acetyl-2'-0-(tetrahydropyran-2-yl) uridine 3'-(4 methylumbelliferone-7-yl ammonium phosphate was stirred in 0.01HCl for 45 minutes and then extracted with ether. Fifty ml of 0.01M sodium acetate buffer, of pH 5, was then added to give the substrate solution;
e. Thyroxine antibody standards: Thyroxine solutions were freshly prepared to provide thyroxine concentrations of 0 ng/ml, 30 ng/ml, 60 ng/ml, 120 ng/ml, and 240 ng/ml in an aqueous medium containing human serum.
Seventy-five microliters of the standard thyroxine solution was pretreated with 20 ul of 0.5N sodium hydroxide […] at room temperature. One hundred microliters of the antibody and 300 ul of thyroxine-S peptide labeled analyte were then added, and the mixture was incubated for 30 minutes at room temperature. A mixture consisting of 1.8 ml of substrate and 100 ul S-protein was then added. After incubating for 5 minutes, the rate of increase of fluorescence was monitored over a 10 minute period. An Aminco Filter Fluorometer (Model J4-7440) equipped with an automatic 20 sample changer (Model 047-67059) was utilized with excitation at 325 nm and emission at 440 nm. The data points were taken for each sample at times 0, 5, and 10 minutes by an automatic data acquisition system. Table 7 summarizes the results:
In order to obtain a displacement curve, the data for duplicate points are averaged; and the % bound fraction (% B/Bo) is calculated from the equation: [formula] where Rate Bn is the rate corresponding to a non-zero standard and Rate Bo is that corresponding to the zero standard solution.

thyroxine antibody [3] = assay: Reference displacement curve, thyroxine, interconverted pipetting of labeled analyte and S-protein (Example XIX); format: binding; details: for 10^3 Rate: antibody
Text: This Example illustrates the interconversion of the thyroxine labeled analyte and S-protein where the S-protein is pipetted into the sample well and the labeled analyte is pipetted into the reagent well, in contrast to the preceding example where the reverse arrangement was used. Additionally, this Example illustrates the formulation of two reagent solutions for direct pipetting into the sample and reagent wells of the transfer disc using an automatic pipetter (Centrifichem® model P-500 pipetter). Thirdly, this Example illustrates the enhancement of dynamic range in relation to that obtained in Example XVIII by increasing the concentrations of the antibody and S-protein.
(§1) The following reagents were utilized:
a. Thyroxine-S-peptide labeled analyte: Material prepared in the manner described in Examples I-IV was diluted by a factor of 1:50 with 0.1M sodium acetate buffer of pH 5.0;
b. Antibody: Antiserum was diluted by a factor of 1:30 with 0.1M sodium acetate buffer of pH 5.0;
c. Substrate: Uridine 3'-(α-naphthyl phosphate);
d. S-protein: Sigma purified commercial material was brought to […] in 0.1M sodium acetate buffer;
e. Dye: As in Example XVIII.
f. Standards: As in Example XVIII.
A mixture consisting of 500 ul of the substrate, 100 ul of the dye, and 250 ul of the conjugate was prepared. (Reagent A)
A second solution (Reagent B) was prepared by combining 300 ul of the antibody, reagent, 300 ul of the S-protein and 150 ul of 0.1N. sodium acetate buffer.
The following protocol was utilized for the assay: The standard (20 ul) and 65 ul of de-ionized H2 O were delivered to the sample well of the transfer disc by the sample probe of the P-500 pipetter. The reagent B (50 ul) was delivered to the sample well with the second reagent probe of the pipetter. Reagent A (250 ul) was delivered to the reagent well of the transfer disc with the first reagent probe of the pipetter. All three pipetting operations were done simultaneously in one cycle. The transfer disc was then placed on the CentrifiChem® 400 for analysis. The following settings were utilized for the CentrifiChem®: temperature, 30°; filter, 520 nm; T0, 10 seconds; T, 2 minutes; Abs, 3.0 u; Blank, hold; test mode, Term; print out, Abs; concentration factor, 0; test code, 0.

thyroxine antibody [4] = assay: Reference displacement curve, thyroxine vs thyroxine-S-peptide, colorimetric, CentrifiChem 500 (Example XVIII); format: binding; details: for Rate: antibody
Protocol: This Example illustrates the generation of a reference displacement curve for determination of unknown concentrations of the analyte thyroxine where a colorimetric substrate is utilized along with a centrifugal fast analyzer.
as §1
a. Thyroxine S-peptide labeled analyte: Material prepared in the manner described in Examples I-IV was diluted by a factor of 1:400 with 0.1M sodium acetate buffer of pH 5.0;
b. Antibody: Antiserum was diluted by a factor of 1:300 with 0.1M sodium acetate buffer of pH 5.0;
c. Substrate: Uridine 3'-α-naphthyl phosphate;
d. S-protein: Sigma purified commercial material was brought to 2.5×10^-6 M in 0.1M sodium acetate buffer;
e. Dye: The 1,5-naphthalene disulfonic acid stabilized salt of diazo-psulfanilic acid (25 mg.) was dissolved in 1 ml of 0.1N HCl;
f. Standards: Thyroxine standards at concentrations of 0, 40, 80, 120, and 200 ng/ml were made up in a human serum containing solution.
The following settings were utilized on the CentrifiChem° 500 centrifugal fast analyzer: rotor temp, 30°; filter, 520 nm; To, 10 sec; t, 2 min; ABS 1.0 u; Blank, hold; test mode, Term; Print out, ABS; conc. factor, 0; test code 0.
The standard (20 ul), antibody and polypeptide labeled analyte were pipetted into the sample wells of channels 3 to 14 of the transfer disc. A mixture of 5 ul of the dye, 300 ul of substrate, and 20 ul of S-protein, was pipetted into the corresponding reagent wells along with 10 ul of acetate buffer. The loaded transfer disc was placed on the rotor, and the instrument was spun. […]

RNase 1-118 = details: combined with RNase 1-118; cited from earlier work

## N[C@@H](Cc1cc(I)c(Oc2cc(I)c(O)c(I)c2)c(I)c1)C(=O)O [thyroxine]
Thyroxine antibody [1]
  immunoreactivity as the pH is increased: immunoreactivity is decreased
Thyroxine antibody [2]; thyroxine standard 30 ng/ml
  Rate: 13.00 mv/min and 13.57 mv/min
Thyroxine antibody [2]; thyroxine standard 60 ng/ml
  Rate: 13.30 mv/min and 13.40 mv/min
Thyroxine antibody [2]; thyroxine standard 120 ng/ml
  Rate: 13.68 mv/min
Thyroxine antibody [2]; thyroxine standard 240 ng/ml
  Rate: 14.15 mv/min and 14.17 mv/min
Thyroxine antibody [2]; standard 30 ng/ml
  % B/B0 (% bound fraction): 67%
  Rate (average of duplicates): 13.28 mv/min
Thyroxine antibody [2]; standard 60 ng/ml
  % B/B0 (% bound fraction): 64%
  Rate (average of duplicates): 13.35 mv/min
Thyroxine antibody [2]; standard 120 ng/ml
  % B/B0 (% bound fraction): 51%
  Rate (average of duplicates): 13.68 mv/min
Thyroxine antibody [2]; standard 240 ng/ml
  % B/B0 (% bound fraction): 32%
  Rate (average of duplicates): 14.16 mv/min
Thyroxine antibody [3]; 0-200 ng/ml
  spread in rate covering the range of standard concentrations: 12 milliabsorbance units/min.
  spread in rate relative to Example XVIII: about 4 times
Thyroxine antibody [3]; standard 40 ng/ml
  10^3 Rate: 57.8 a.u./min. and 58.3 a.u./min.
Thyroxine antibody [3]; standard 80 ng/ml
  10^3 Rate: 60.4 a.u./min. and 59.5 a.u./min.
Thyroxine antibody [3]; standard 120 ng/ml
  10^3 Rate: 62.0 a.u./min. and 64.8 a.u./min.
Thyroxine antibody [3]; standard 200 ng/ml
  10^3 Rate: 65.3 a.u./min.
Thyroxine antibody [4]; 0 to 200 ng/ml
  rate response between the 0 standard and 200 ng/ml standard: 3.5 m.a.u./min.
Thyroxine antibody [4]; standard 40 ng/ml
  Rate: 0.0208 a.u./min and 0.0222 a.u./min
Thyroxine antibody [4]; standard 80 ng/ml
  Rate: 0.0217 a.u./min and 0.0218 a.u./min
Thyroxine antibody [4]; standard 120 ng/ml
  Rate: 0.0224 a.u./min
Thyroxine antibody [4]; standard 200 ng/ml
  Rate: 0.0230 a.u./min

## tetradecapeptide 111 to 124: synthesized tetradecapeptide corresponding to residues 111 to 124 of the original RNase (EGNPYVPVHFDASV; UniProt P61823 137-150, looked up, fragment)
RNase 1-118
  recovery of catalytic activity of RNase: essentially the full catalytic activity of RNase was recovered

Source: US4785080A, “Labeled analytes” (Baker Instruments Corporation, priority 1985, dated 1988)
